Marks after values point to notes of the source that are not given here.

The assay has as its system endogenous dopamine release in the human brain. As to the kind of experiment: [^11C]PHNO PET of endogenous dopamine release after d-AMPH challenge. It is filed as in vivo. The note with it: for effect on [^11C]PHNO BPND: d-AMPH 0.5 mg/kg single oral dose, all ROI; for ΔBPND^AMPH Mean (SD), Ca / ΔBPND^AMPH Mean (SD), GP / ΔBPND^AMPH Mean (SD), Pu / ΔBPND^AMPH Mean (SD), SN / ΔBPND^AMPH Mean (SD), VSt: d-AMPH only scan. The method, then:
A T1-weighted magnetic resonance imaging (MRI) scan of the brain, performed at screening, was used to obtain anatomical information required for PET data analysis. Each subject underwent three [^11C]PHNO PET scans, one at baseline, the second approximately 3 h after a single oral dose of dex-amphetamine (d-AMPH, 0.5 mg/kg), and the third approximately 5 h after a single oral dose of Compound (I) (20 or 40 mg) and 3 h after an oral dose of dex-amphetamine (d-APMH) (0.5 mg/kg) (FIG. 2).
Subjects were positioned in the PET scanner, after the insertion of a venous cannula in an antecubital or forearm vein. Soft padding and head restraints were used to minimize head movement during data acquisition. All dynamic [^11C]PHNO PET scans were acquired on Siemens Biograph 6 PET/CT scanners (Hi-Rez (PET/CT1) or a TruePoint with TrueV, Siemens Healthcare, Erlangen, Germany). All scans for a particular subject were acquired on the same scanner. A low-dose computed tomography (CT) scan was performed immediately before each PET study to estimate signal attenuation. Following an intravenous bolus injection of [^11C]PHNO, dynamic emission data were acquired for 90 min in 26 frames of increasing duration. The dynamic images were reconstructed using Fourier rebinning and a 2D filtered discrete inverse Fourier transform algorithm with 5 mm isotropic Gaussian filter on a 128×128 matrix with 2.6 zoom giving 2 mm isotropic voxels. Appropriate corrections were applied for attenuation, randoms, and scatter.
The primary set of ROIs defined were the ventral striatum (VSt), putamen (Pu) and cerebellum. […] The cerebellum was used as a reference region. An additional set of ROIs including the caudate nucleus (Ca), globus pallidus (GP) and substantia nigra (SN) was also evaluated.
Regional TAC data extracted from the PET images were fitted using a basis function implementation of the SRTM (Gunn et al., 1997) to estimate the binding potential relative to the non-displaceable component (BPND) for each PET scan, as a measure of specific binding (Innis et al., 2007).
Reduction in [^11C]-PHNO specific binding following a d-AMPH challenge (ΔBPND^APMH) was quantified as percent change in postdose BPND (BPND^AMPH) from baseline BPND (BPND^BL):
Reduction in [^11C]-PHNO specific binding following a combination of Compound (I) and d-AMPH (ΔBPND^APMH+C1) was quantified as percent change in postdose BPND (BPND^AMPH+C1) from baseline BPND (BPND^BL):
The effect of Compound (I) (ΔΔBPND) was quantified as the percent change BPND in ΔBPND^APMH+C1 compared to ΔBPND^APMH:
All statistical comparisons were conducted using Student's t-tests for each ROI, using paired tests for within subject comparisons, and unpaired tests for between group comparisons.

The mark [1] stands for this setting: subjects of the 20 mg Compound (I) group.
[2] abbreviates: subjects of the 40 mg Compound (I) group.

As for `C[C@H](N)Cc1ccccc1` [d-AMPH, Dextroamphetamine, reference compound], the “effect on [^11C]PHNO BPND” value is listed as “significant reduction in BPND”. For the same compound, the “effect on [^11C]PHNO BPND” value (listed as d-APMH) was “robust reduction of [^11C]PHNO BPND”. In addition, under “all subjects”, the “ΔBPND^AMPH Mean (SD), Ca” value is 15.6 (5.7) * %; the “ΔBPND^AMPH Mean (SD), GP” value was 15.9 (7.7) * %; the “ΔBPND^AMPH Mean (SD), Pu” value is on record as 21.6 (5.1) * %; the “ΔBPND^AMPH Mean (SD), SN” value is recorded as 27.8 (10.9) * %. The “ΔBPND^AMPH Mean (SD), VSt” value (all subjects) is 26.5 (7.7) * %. Under setting [1], the “ΔBPND^AMPH Mean (SD), Ca” value is recorded as 17.8 (5.7) * %; the “ΔBPND^AMPH Mean (SD), GP” value is listed as 17.6 (1.5) * %; the “ΔBPND^AMPH Mean (SD), Pu” value was 23.6 (4.6) * %; the “ΔBPND^AMPH Mean (SD), SN” value is 28.4 (9.0) * %. In addition, under setting [1], the “ΔBPND^AMPH Mean (SD), VSt” value is recorded as 25.4 (8.0) * %. Besides, under setting [2], the “ΔBPND^AMPH Mean (SD), Ca” value is listed as 13.4 (5.3) * %; the “ΔBPND^AMPH Mean (SD), GP” value is recorded as 14.2 (11.1) * %; the “ΔBPND^AMPH Mean (SD), Pu” value is given as 19.6 (5.3) * %; the “ΔBPND^AMPH Mean (SD), SN” value is given as 27.2 (13.6) * %. The “ΔBPND^AMPH Mean (SD), VSt” value under setting [2] is 27.6 (8.2) * %.

The record behind these values is patent US20230310441A1, “TREATMENT FOR SCHIZOPHRENIA” (TAKEDA PHARMACEUTICAL COMPANY, priority 2020, published 2023).
